Drawing on PubChem BioAssay (NCI), this text covers GI50 and TGI for 4 compounds.

Test systems include SNB-19 CNS; MDA-MB-435; NCI-H522 lung; IGROV1 ovarian; M14 melanoma; DU-145 prostate; U251 CNS; UACC-257 melanoma; SW-620 colon; A549 NSCLC.
Holding throughout (assay): NCI tumour cell line growth inhibition, 48 h

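Cells were grown in 96-well plates and exposed to each compound for 48 hours at five concentrations; endpoints were interpolated linearly between bracketing concentrations, or set to the highest concentration if not reached. GI50 = concentration required for 50% inhibition of growth. TGI: total growth inhibition.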

As for `Cn1cc(C2=C(c3cc[nH]c3)C(=O)NC2=O)c2ccccc21`, the GI50 in the assay with SNB-19 CNS was > 25 µM; in the assay on MDA-MB-435, 19.7 µM; in the assay with NCI-H522 lung, 24.3 µM; in the assay with IGROV1 ovarian, > 25 µM; with M14 melanoma it was > 25 µM; with DU-145 prostate, > 25 µM. For the same compound, the GI50 in the assay on U251 CNS, in the assay with UACC-257 melanoma, in the assay with SW-620 colon and in the assay on A549 NSCLC was > 25 µM each time. The TGI with SNB-19 CNS, in the assay on MDA-MB-435, with NCI-H522 lung, with IGROV1 ovarian, in the assay on M14 melanoma and in the assay with DU-145 prostate was > 25 µM throughout. Further, the TGI in the assay on U251 CNS, in the assay on UACC-257 melanoma, in the assay on SW-620 colon and in the assay with A549 NSCLC was > 25 µM throughout.

For the compound `C[C@@]1(C(=O)O)CCC[C@]2(C)C1CC[C@]13C[C@@](O)(CO)[C@](O)(CC[C@]12O)C3` (stereo not given in full), the GI50 with SNB-19 CNS, with MDA-MB-435, with NCI-H522 lung, in the assay with IGROV1 ovarian, with M14 melanoma and with DU-145 prostate was > 100 µM in each case. For the same compound, the GI50 with U251 CNS, with UACC-257 melanoma, in the assay on SW-620 colon and in the assay with A549 NSCLC was > 100 µM in each case. Moreover, the TGI in the assay with SNB-19 CNS, in the assay with MDA-MB-435, in the assay with NCI-H522 lung, with IGROV1 ovarian, with M14 melanoma and with DU-145 prostate was > 100 µM each time. The TGI in the assay with U251 CNS, in the assay on UACC-257 melanoma, with SW-620 colon and in the assay with A549 NSCLC was > 100 µM throughout.

As to `Cc1cc(N(CCC#N)CCC#N)ccc1/C=C(\NC(=O)/C=C/c1ccccc1)C(=O)Nc1ccc(Cl)cc1`, the TGI in the assay with SNB-19 CNS, in the assay on MDA-MB-435, with NCI-H522 lung, in the assay with IGROV1 ovarian, with M14 melanoma and with DU-145 prostate was > 100 µM each time. Further, the TGI in the assay on U251 CNS is > 43.9 µM; with UACC-257 melanoma it was > 100 µM; in the assay on SW-620 colon it was > 100 µM; in the assay on A549 NSCLC, > 100 µM.

On to `Cc1nn(Cc2ccccc2)cc1C(=O)Nc1sc2c(c1C(N)=O)CCC(=O)C2`, for which the GI50 is 3.33 µM with SNB-19 CNS; 1.98 µM in the assay on MDA-MB-435; 1.25 µM with NCI-H522 lung; 2.44 µM in the assay with IGROV1 ovarian; 3.42 µM with M14 melanoma; 3.73 µM in the assay with DU-145 prostate. Besides, the GI50 is 2.62 µM in the assay with U251 CNS, 2.16 µM in the assay on UACC-257 melanoma, 0.985 µM in the assay on SW-620 colon and 4.39 µM in the assay with A549 NSCLC. Moreover, the TGI with SNB-19 CNS was > 100 µM; with MDA-MB-435, 4.45 µM; in the assay with NCI-H522 lung it was 5.25 µM; with IGROV1 ovarian it was 7.96 µM; with M14 melanoma, 14.4 µM; in the assay with DU-145 prostate it was > 100 µM. In addition, the TGI with U251 CNS is > 100 µM; with UACC-257 melanoma, 6.24 µM; in the assay with SW-620 colon it was 5.78 µM; with A549 NSCLC it was > 100 µM.
